Measurements from publication PMC4403079, “Flavonoids from Salvia chloroleuca with α-Amylsae and α-Glucosidase Inhibitory Effect” (Iranian Journal of Pharmaceutical Research : IJPR, 2015).
Read-outs that look alike come from different tables or passages of the source.

How the values were obtained:
[1] = biological target: T1, Porcine pancreas α-amylase type VI (Sus scrofa, UniProt P00690); assay: biochemical
T1 construct: purchased Sigma-Aldrich
T1 sequence (P00690 16-511): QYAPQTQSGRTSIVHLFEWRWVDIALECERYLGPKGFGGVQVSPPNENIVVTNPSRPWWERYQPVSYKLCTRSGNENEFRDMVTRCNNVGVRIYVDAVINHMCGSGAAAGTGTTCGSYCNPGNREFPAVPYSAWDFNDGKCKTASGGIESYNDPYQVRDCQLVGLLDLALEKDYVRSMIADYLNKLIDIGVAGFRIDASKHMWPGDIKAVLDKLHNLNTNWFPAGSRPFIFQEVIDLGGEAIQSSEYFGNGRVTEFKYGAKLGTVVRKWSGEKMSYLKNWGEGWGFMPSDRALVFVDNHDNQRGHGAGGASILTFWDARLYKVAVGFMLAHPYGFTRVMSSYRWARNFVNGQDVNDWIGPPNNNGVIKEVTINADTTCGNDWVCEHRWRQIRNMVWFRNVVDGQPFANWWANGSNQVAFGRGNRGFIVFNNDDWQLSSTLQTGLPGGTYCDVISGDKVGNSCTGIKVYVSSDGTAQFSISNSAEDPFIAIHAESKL
Experimental: (§1) Soluble starch, sodium dihydrogenphosphate (NaH2PO4), sodium potassium tartrate and sodium chloride were purchased from Merck. Analytical grade solvents for extraction and HPLC grade solvents for chromatography were from Scharlau (Barcelona, Spain). HPLC grade water was obtained by an EASY-pure II (Barnstead, Dubuque IA, USA) water purification system. Deuterated solvents were purchased from Armar Chemicals (Döttingen, Switzerland).
α-Amylase inhibition activity was assessed by a previously reported procedure with some modifications ([17]). […] Individual blanks were prepared to correct for the blank ground absorbance, where the enzyme was replaced with buffer as follows:
Corrected absorbance of test sample = Absorbance of sample –absorbance of blank
From the net absorbance obtained, the % (w/v) of maltose generated was calculated from the equation obtained from the maltose standard calibration curve (0–0.1%, w/v, maltose).
Control incubations, representing 100% enzyme activity, were conducted in the same manner replacing the plant extract with DMSO. The percentage of α-amylase inhibition was calculated by the following equations:
% reaction=mean of maltose in sample/mean of maltose in control×100
% α-amylase inhibition activity= 100 - % reaction
(§2) Statistical analyses were done using GraphPad Prism version 5.00 for Windows. Differences were evaluated by one-way analysis of variance (ANOVA) test completed by Tukey’s multicomparison test. Statistical signiﬁcance was declared at a p<0.05. All assays were performed at least in triplicate and the results were expressed as mean ± standard deviation (SD). IC50 values were determined by plotting a percent inhibition versus concentration curve for all assays.

[2] = biological target: T2, α-glucosidase type I from Baker's Yeast (Saccharomyces cerevisiae, UniProt P53341); assay: biochemical
T2 construct: purchased Sigma-Aldrich
T2 sequence (P53341 whole entry): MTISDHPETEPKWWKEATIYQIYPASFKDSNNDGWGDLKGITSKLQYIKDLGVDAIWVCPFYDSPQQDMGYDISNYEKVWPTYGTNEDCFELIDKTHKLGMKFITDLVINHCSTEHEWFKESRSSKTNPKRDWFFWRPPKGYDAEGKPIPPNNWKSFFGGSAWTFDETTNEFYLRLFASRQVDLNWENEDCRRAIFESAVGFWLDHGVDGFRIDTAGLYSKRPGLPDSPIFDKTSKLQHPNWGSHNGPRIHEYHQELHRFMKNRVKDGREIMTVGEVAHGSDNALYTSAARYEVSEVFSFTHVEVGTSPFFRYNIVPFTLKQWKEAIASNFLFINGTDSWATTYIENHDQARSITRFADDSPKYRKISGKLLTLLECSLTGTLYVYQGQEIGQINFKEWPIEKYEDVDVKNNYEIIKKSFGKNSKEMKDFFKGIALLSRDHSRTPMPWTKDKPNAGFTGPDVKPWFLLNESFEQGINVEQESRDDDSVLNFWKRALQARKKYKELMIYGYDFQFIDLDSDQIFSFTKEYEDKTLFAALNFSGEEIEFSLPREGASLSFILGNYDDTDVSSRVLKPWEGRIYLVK
Experimental: as §1
The α-glucosidase inhibition was measured according to an earlier reported bioassay method ([18]). […] The mixed solution was incubated in 96-well plates at 37 °C for 15 min. After preincubation, the enzymatic reaction was initiated by adding 20 µL of 5 mM p-nitrophenyl-α-D-glucopyranoside solution in 0.1 M phosphate buffer (pH 6.9), and the reaction mixture was incubated for another 15 min at 37 °C. […] The reaction system without plant extracts was used as control and the system without α-glucosidase was used as blank for correcting the background absorbance. The inhibitory rate of sample on α-glucosidase was calculated by the following formula:
% Inhibition=control absorbance-sample absorbance/control absorbance×100
as §2

[3] = isolated compounds, pH 6.8, 37 °C, 30 min, mean ± SD, read-out: α-amylase (IC50 µM)

| IC50 [1] | IC50 ([2]; isolated compounds, pH 6.9, 37 °C, mean ± SD, read-out: α-glucosidase (IC50 µM)) | Compound | IC50 [1, 3] | IC50 [2] |
| --- | --- | --- | --- | --- |
| – | – | O=C(O)[C@H]1O[C@@H](Oc2cc(O)c3c(=O)cc(-c4ccc(O)c(O)c4)oc3c2)[C@H](O)[C@@H](O)[C@@H]1O [Compound 2, luteolin 7-O-glucuronide] | 61.5 ± 1.4 µM | 14.7 ± 2.1 µM |
| – | – | O=c1cc(-c2ccc(O)c(O)c2)oc2cc(O[C@@H]3O[C@H](CO)[C@@H](O)[C@H](O)[C@H]3O)cc(O)c12 [Compound 1, luteolin 7-O-glucoside] | 81.7 ± 2.3 µM | 18.3 ± 1.7 µM |
| – | – | COc1ccc(-c2cc(=O)c3c(O)cc(O[C@@H]4O[C@H](C(=O)O)[C@@H](O)[C@H](O)[C@H]4O)cc3o2)cc1O [Compound 3, diosmetin 7-O-glucuronide] | 76.3 ± 0.6 µM | 17.1 ± 1.9 µM |
| > 100 µM | > 50 µM | COc1ccc(-c2cc(=O)c3c(O)c(OC)c(OC)cc3o2)cc1 [Compound 4, salvigenin] | – | – |
